From PMC12920295, “Novel radiohybrid PET-Tracers for SST2-targeted imaging of neuroendocrine tumors” (European Journal of Nuclear Medicine and Molecular Imaging, 2025)
Like-named read-outs stand apart in the source and are kept apart here.

Key:
[1] = Biodistribution 1 h p.i. in AR42J xenograft bearing CD1 nu/nu mice; format: in vivo; details: female, mouse, intravenous, total radioactivity, average ± Stdev
Method: (§1) The 8-week-old female CD1 nu/nu mice were purchased from Charles River (Sulzfeld, Germany). Animal experiments were conducted according to general animal welfare regulations (German animal protection act, as amended on 18.05.2018, Art. 141 G v. 29.3.2017 I 626, approval no. 55.2-1.2-54–2532-71-13 by the General Administration of the Free State of Bavaria; Swiss animal welfare regulations: Animal Welfare Act SR 455, license: Canton de Vaud, 3781 d). To establish tumor xenografts, AR42J cells (5 × 10^6 cells in 100 µl serum-free culture medium) were inoculated subcutaneously onto the shoulder. Mice were used for experiments when tumors had grown to a diameter of 5–9 mm (7–15 days after inoculation).
Approximately 0.5–2.5 MBq (0.05–0.20 nmol) of the ^18F-labeled ligands were injected into the tail vein of AR42J xenograft-bearing mice under isoflurane anesthesia (1.5% alveolar concentration). The mice were sacrificed 1 h post injection (n = 3–5). Organs were removed, weighed, and the activity quantified (γ-counter).
An unpaired Welch’s t-test was applied using the GraphPad Prism software (version 10.1.2). Standard deviations for tumor-to-organ (T/O) ratios were calculated using the rules of error propagation. Thresholds for statistical significance are defined as: p > 0.05 (ns); p ≤ 0.05 (*); p ≤ 0.01 (**); p ≤ 0.001 (***); p ≤ 0.0001 (****).

[2] = molecular target: T1, human serum albumin (HSA) (Homo sapiens, UniProt P02768); assay: HSA binding by high performance affinity chromatography (HPAC); format: in vitro ADME
T1 construct: purchased H13H-2433
Method: For the determination of binding to human serum albumin (HSA) using HPLC, a Chiralpak HSA column (50 × 3 mm, 5 μm, H13H-2433) was used at a constant flow rate of 0.5 ml/min. The mobile phase (A: NH4OAc, 50 mM in H2O, pH 6.9 and B: iPrOH) was freshly prepared for each day.

[3] = Lipophilicity LogDpH=7.4, shake flask method; format: physicochemical; details: PBS (pH = 7.4)/n-octanol, mean of n = 8
Method: The LogDpH=7.4 was determined using a modified shake flask method as previously described.

AR42J cells = assay: Internalization into AR42J cells relative to [125I]TOC; format: cell-based; details: percentage compared to internal reference [125I]TOC
Method: AR42J cells (European Collection of Cell Cultures, Salisbury, UK) were grown in RPMI 1640 medium (with 2 mM, L-Glu, 10% FCS; v/v, 37 °C, 5% CO2), harvested 24 ± 2 h and seeded in 24-well poly-L-lysine plates (2.0 × 10^5 cells/well in 1 ml culture medium). After removal of the medium, the cells were washed with assay medium (300 µl, RPMI 1640 with 2 mM L-Glu, 5% BSA; v/v) and incubated in assay medium (200 µl, 15 min, 37 °C, 5% CO2). 25 µl of the ^18F-labeled ligand (20 nM) and [^125I]TOC (1 nM) in assay medium were added followed by either 25 µl TOC in assay medium (100 µM, competition experiment) or 25 µl of assay medium (internalization experiment). Cells were incubated at 37 °C for 15, 30, and 60 min (n = 3 per compound and time point), respectively, and chilled on ice. The supernatant was collected, the well washed with ice-cold RPMI 1640 (300 µl), and the two fractions combined (unbound ligand). The cells were incubated with acid wash solution (300 µl, 0.9% NaCl, 50 mM NaOAc/AcOH buffer, pH = 4.6, 15 min, 4 °C) to remove receptor-bound radioligand. The supernatant was collected, and the cells washed with 300 µl ice-cold acid wash solution (combined fractions: acid releasable, receptor bound ligand). The cells were lysed with NaOH solution (300 µl, 1 M, 15 min, RT), washed with 300 µl of the same solution, the two fractions combined (internalized ligand), and all activities quantified using a γ-counter.

SST2 (AR42J tumor) = molecular target: T2, SST2 (AR42J tumor) (Rattus norvegicus, UniProt P30680); assay: µPET/CT imaging with and without octreotide blocking in AR42J tumor bearing mice; format: in vivo; details: 60 min p.i.
T2 construct: endogenous in cells; host or cells: AR42J xenograft in CD1 nu/nu mice
Method: as §1
4–5 MBq (0.3–0.5 nmol) of the ^68Ga-labeled SST2-ligand were injected into the tail vein of the xenograft-bearing mice. After 1 h, the mice were anesthetized (isoflurane: 1.5% alveolar concentration) and a PET image acquired (20 min, 32 × 32, 0.5 mm) using an Albira PET/SPECT/CT (Bruker Biospin Corporation, Woodbridge, CT, USA) followed by a CT scan (10 min). For blocking, 20 µg octreotide (0.8 mg/kg) were co-injected with the tracer. The images were reconstructed (Albira reconstructor, version NMI3.3) and analyzed (PMOD, V6.3.4, Bruker).

[4] = In-vitro stability in PBS, human serum and mouse liver extract; format: in vitro ADME; details: 1 h, 37 °C, radio RP-HPLC
Method: [^natF][^68Ga]rhTATE (ca. 5 MBq) was added to 500 µl samples of mouse liver extract, human serum, or PBS, respectively. The mixtures were incubated at 37 °C for 60 min. Workup of blood and liver extract samples was performed using cartridge purification (StrataX cartridge, 33 μm Polymeric Reversed Phase, 500 mg; preconditioning: 500 µl MeOH, 5 ml H2O; washing: 3 ml H2O; elution: ACN/H2O (0.1% TFA, 1:3, v/v, 300 µl). The resulting eluates were analyzed using radio RP-HPLC (Chromolith^R RP-18e; 100 × 4.6 mm; Merck KGaA; gradient of 10–90% ACN in H2O (0.1% TFA) within 8 min; flow rate: 1 ml/min). For cross-validation of HPLC results, radio RP-TLC was equally performed for all samples (1 M citric acid/NaOH, pH = 5.0; Rf: Product: 0.0–0.2.0.2; ^68Ga: 0.8–1.0.8.0).

[5] = design: method as in PMID 10774879; details: PBS (pH = 7.4)/n-octanol; cited from earlier work
[6] = co-injection of 20 µg octreotide (0.8 mg/kg)

T2 sequence (P30680 whole entry): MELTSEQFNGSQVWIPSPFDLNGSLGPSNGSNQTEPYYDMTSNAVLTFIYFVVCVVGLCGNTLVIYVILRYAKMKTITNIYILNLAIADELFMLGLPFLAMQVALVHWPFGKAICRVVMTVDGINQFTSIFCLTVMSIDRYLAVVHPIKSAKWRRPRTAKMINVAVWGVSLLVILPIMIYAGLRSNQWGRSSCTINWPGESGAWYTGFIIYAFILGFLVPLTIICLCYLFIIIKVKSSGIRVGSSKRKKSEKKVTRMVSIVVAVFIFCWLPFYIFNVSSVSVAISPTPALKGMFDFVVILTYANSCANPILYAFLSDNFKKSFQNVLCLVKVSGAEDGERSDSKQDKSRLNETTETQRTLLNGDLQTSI
T1 sequence (P02768 25-609): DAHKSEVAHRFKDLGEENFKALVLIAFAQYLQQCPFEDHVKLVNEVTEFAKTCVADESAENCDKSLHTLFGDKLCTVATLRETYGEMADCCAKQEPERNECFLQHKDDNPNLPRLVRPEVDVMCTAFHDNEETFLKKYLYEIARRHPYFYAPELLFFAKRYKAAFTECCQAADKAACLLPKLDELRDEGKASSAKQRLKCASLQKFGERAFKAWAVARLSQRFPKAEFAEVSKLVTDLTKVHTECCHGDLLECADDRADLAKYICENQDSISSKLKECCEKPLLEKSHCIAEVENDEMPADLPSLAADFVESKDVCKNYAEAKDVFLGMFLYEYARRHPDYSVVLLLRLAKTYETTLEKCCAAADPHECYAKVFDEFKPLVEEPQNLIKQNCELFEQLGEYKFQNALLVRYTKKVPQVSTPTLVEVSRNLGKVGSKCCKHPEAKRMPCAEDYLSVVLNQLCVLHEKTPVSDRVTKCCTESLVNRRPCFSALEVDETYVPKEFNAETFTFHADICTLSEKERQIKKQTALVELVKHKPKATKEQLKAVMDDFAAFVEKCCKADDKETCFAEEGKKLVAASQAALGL

Structure (SMILES): C[C@@H](O)[C@H](NC(=O)[C@@H]1CSSC[C@H](NC(=O)[C@@H](Cc2ccccc2)NC(=O)CN2CCN(CC(=O)O)CCN(CC(=O)NCCCC[C@@H](NC(=O)[C@@H](CNC(=O)C[N+](C)(C)Cc3ccc([Si](F)(C(C)(C)C)C(C)(C)C)cc3)NC(=O)[C@@H](CCC(=O)O)NC(=O)[C@@H](CCC(=O)O)NC(=O)[C@H](N)CCC(=O)O)C(=O)O)CCN(CC(=O)O)CC2)C(=O)N[C@@H](Cc2ccc(O)cc2)C(=O)N[C@H](Cc2c[nH]c3ccccc23)C(=O)N[C@@H](CCCCN)C(=O)N[C@@H]([C@@H](C)O)C(=O)N1)C(=O)O [[^18/natF][^natGa]rhTATE2.5, metal not drawn]
- tissue uptake at 1 h ([1]; adrenal glands, AR42J tumor-bearing CD1 nu/nu mice, read-out: Biodistribution Adrenal Glands): 1.52 ± 0.21 %ID/g
- tissue uptake at 1 h ([1]; blood, AR42J tumor-bearing CD1 nu/nu mice, read-out: Biodistribution Blood): 0.32 ± 0.11 %ID/g
- tissue uptake at 1 h ([1]; femur, AR42J tumor-bearing CD1 nu/nu mice, read-out: Biodistribution Femur): 1.05 ± 0.3 %ID/g
- tissue uptake at 1 h ([1]; heart, AR42J tumor-bearing CD1 nu/nu mice, read-out: Biodistribution Heart): 0.18 ± 0.05 %ID/g
- tissue uptake at 1 h ([1]; intestine, AR42J tumor-bearing CD1 nu/nu mice, read-out: Biodistribution Intestine): 1.3 ± 0.25 %ID/g
- tissue uptake at 1 h ([1]; kidney, AR42J tumor-bearing CD1 nu/nu mice, read-out: Biodistribution Kidney): 12.5 ± 3.5 %ID/g
- tissue uptake at 1 h ([1]; liver, AR42J tumor-bearing CD1 nu/nu mice, read-out: Biodistribution Liver): 0.4 ± 0.12 %ID/g
- tissue uptake at 1 h ([1]; lung, AR42J tumor-bearing CD1 nu/nu mice, read-out: Biodistribution Lung): 2.73 ± 0.46 %ID/g
- tissue uptake at 1 h ([1]; muscle, AR42J tumor-bearing CD1 nu/nu mice, read-out: Biodistribution Muscle): 0.04 ± 0.02 %ID/g
- tissue uptake at 1 h ([1]; pancreas, AR42J tumor-bearing CD1 nu/nu mice, read-out: Biodistribution Pancreas): 11.5 ± 2.32 %ID/g
- tissue uptake at 1 h ([1]; spleen, AR42J tumor-bearing CD1 nu/nu mice, read-out: Biodistribution Spleen): 0.35 ± 0.07 %ID/g
- tissue uptake at 1 h ([1]; stomach, AR42J tumor-bearing CD1 nu/nu mice, read-out: Biodistribution Stomach): 6.46 ± 1 %ID/g
- tissue uptake at 1 h ([1]; tumor (AR42J xenograft), AR42J xenograft, CD1 nu/nu mice, read-out: Biodistribution Tumor): 18.6 ± 6.18 %ID/g
- HSA HPAC ([2]; affinity to HSA by affinity chromatography (Chiralpak HSA column)): 84.8%
- LogDpH=7.4 [3]: −2.30
- Internalization (AR42J cells): 357%
- µPET kidney activity with SST2 blocking (SST2 (AR42J tumor); [6]): significantly reduced kidney activity
- µPET tumor signal with SST2 blocking (SST2 (AR42J tumor); [6]): no detectable tumor signal
- µPET uptake in the tumor and kidneys (SST2 (AR42J tumor); control mouse, 4 MBq, 0.5 nmol tracer/mouse): intense
- in vitro stability [4]: stable over 60 min

Structure (SMILES): C[C@@H](O)[C@H](NC(=O)[C@@H]1CSSC[C@H](NC(=O)[C@@H](Cc2ccccc2)NC(=O)CN2CCN(CC(=O)O)CCN(CC(=O)O)CCN(CC(=O)O)CC2)C(=O)N[C@@H](Cc2ccc(O)cc2)C(=O)N[C@H](Cc2c[nH]c3ccccc23)C(=O)N[C@@H](CCCCN)C(=O)N[C@@H]([C@@H](C)O)C(=O)N1)C(=O)O [[^nat/68Ga]DOTA-TATE, metal not drawn, reference compound]
- HSA HPAC [2]: 88.9%
- LogDpH=7.4 [5]: −3.69 [24]
- Internalization (AR42J cells): 570%
